Test results reported in US20230295212A1 (ROME Therapeutics, Inc., priority 2022, published 2023).

Target: T1, LINE1 reverse transcriptase (Homo sapiens, UniProt O00370)
T1 construct: expressed in transfected cells; host or cells: HeLa Tet-On 3G (Takara, cat no 631183)
Experiment: Stable artificial-intron Cis LINE1 reporter assay (HeLa Tet-On 3G, Firefly luciferase)
Assay type: cell-based
Conditions: HeLa L1 artificial-intron reporter cells, doxycycline 500 ng/mL, 72 h, class symbols
Procedure, shortened: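 HeLa Tet-On 3G clone stably carrying a bi-directional doxycycline-inducible artificial-intron LINE1 reporter, plated at 8,000 cells/well onto serially diluted compound. Expression induced with 500 ng/mL doxycycline (final); Firefly luciferase luminescence (Dual-Glo) read 72 h after plating as LINE1 activity.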

T1 sequence (O00370 whole entry, looked up): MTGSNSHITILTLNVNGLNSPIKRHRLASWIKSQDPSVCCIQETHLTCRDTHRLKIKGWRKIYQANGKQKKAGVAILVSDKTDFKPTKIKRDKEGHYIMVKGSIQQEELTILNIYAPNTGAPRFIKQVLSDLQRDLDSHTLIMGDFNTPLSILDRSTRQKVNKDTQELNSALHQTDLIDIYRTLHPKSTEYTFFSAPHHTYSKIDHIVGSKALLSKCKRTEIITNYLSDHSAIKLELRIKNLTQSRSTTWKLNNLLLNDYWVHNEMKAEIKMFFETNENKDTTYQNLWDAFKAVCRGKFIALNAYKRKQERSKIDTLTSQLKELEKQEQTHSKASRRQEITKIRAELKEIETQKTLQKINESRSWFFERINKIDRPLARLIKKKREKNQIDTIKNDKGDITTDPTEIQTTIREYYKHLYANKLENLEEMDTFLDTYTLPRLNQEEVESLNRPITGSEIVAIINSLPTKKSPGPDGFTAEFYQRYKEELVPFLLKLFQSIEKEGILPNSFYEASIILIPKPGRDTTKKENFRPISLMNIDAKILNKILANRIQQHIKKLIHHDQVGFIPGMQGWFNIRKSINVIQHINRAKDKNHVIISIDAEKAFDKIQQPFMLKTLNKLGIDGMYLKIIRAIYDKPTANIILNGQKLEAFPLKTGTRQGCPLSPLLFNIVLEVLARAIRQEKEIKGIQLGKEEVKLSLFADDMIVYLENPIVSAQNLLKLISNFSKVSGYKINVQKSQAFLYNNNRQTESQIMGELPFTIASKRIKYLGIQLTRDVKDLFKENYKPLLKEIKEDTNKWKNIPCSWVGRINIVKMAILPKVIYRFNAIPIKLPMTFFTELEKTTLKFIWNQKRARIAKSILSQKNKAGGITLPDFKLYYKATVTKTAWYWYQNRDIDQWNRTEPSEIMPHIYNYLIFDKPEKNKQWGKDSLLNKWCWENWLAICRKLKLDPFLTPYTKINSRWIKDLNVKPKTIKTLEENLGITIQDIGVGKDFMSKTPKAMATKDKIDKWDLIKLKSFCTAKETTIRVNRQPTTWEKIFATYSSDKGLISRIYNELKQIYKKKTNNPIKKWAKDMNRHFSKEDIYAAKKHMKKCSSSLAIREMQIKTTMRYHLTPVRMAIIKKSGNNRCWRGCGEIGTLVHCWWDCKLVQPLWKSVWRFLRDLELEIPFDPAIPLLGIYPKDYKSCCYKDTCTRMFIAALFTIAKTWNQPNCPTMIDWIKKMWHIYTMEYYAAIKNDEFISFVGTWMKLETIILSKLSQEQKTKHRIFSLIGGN

| SMILES | IC50 [µM] |
| --- | --- |
| CC[C@]1(CO)O[C@@H](n2cnc3c(N)nc(F)nc32)[C@@H](F)[C@@H]1O [Compound 81, (2R,3R,4S,5R)-5-(6-amino-2-fluoropurin-9-yl)-2-ethyl-4-fluoro-2-(hydroxymethyl)oxolan-3-ol] | 0.1 to 0.25 |
| CC[C@]1(CO)O[C@@H](n2ccc(N)nc2=O)[C@@H](F)[C@@H]1O [Compound 51, 4-amino-1-((2R,3S,4R,5R)-5-ethyl-3-fluoro-4-hydroxy-5-(hydroxymethyl)tetrahydrofuran-2-yl)pyrimidin-2(1H)-one] | ≤ 0.05 |
| CC(C)C(=O)OC[C@@]1(CCl)O[C@@H](n2cc(F)c(N)nc2=O)C[C@@H]1OC(=O)C(C)C [Compound 58] | 0.05 to 0.1 |
| Nc1nc2c(ncn2[C@H]2C[C@H](O)[C@](CO)(CF)O2)c(=O)[nH]1 [Compound 46, 2-amino-9-((2R,4S,5R)-5-(fluoromethyl)-4-hydroxy-5-(hydroxymethyl)tetrahydrofuran-2-yl)-1,9-dihydro-6H-purin-6-one] | 0.05 to 0.1 |
| [N-]=[N+]=N[C@]1(CO)O[C@@H](n2cnc3c(=O)[nH]c(N)nc32)C[C@@H]1O [Compound 108, 2-amino-9-((2R,4S,5R)-5-azido-4-hydroxy-5-(hydroxymethyl)tetrahydrofuran-2-yl)-1,9-dihydro-6H-purin-6-one] | 0.05 to 0.1 |
| C=C[C@]1(CO)O[C@@H](n2cnc3c(N)nc(F)nc32)[C@@H](F)[C@@H]1O [Compound 80, (2R,3R,4S,5R)-5-(6-amino-2-fluoropurin-9-yl)-2-ethenyl-4-fluoro-2-(hydroxymethyl)oxolan-3-ol] | 0.1 to 0.25 |
| Cc1cn([C@H]2C[C@H](F)[C@@](C)(CO)O2)c(=O)[nH]c1=O [Compound 180, 1-((2R,4S,5R)-4-fluoro-5-(hydroxymethyl)-5-methyltetrahydrofuran-2-yl)-5-methylpyrimidine-2,4(1H,3H)-dione] | > 1 |
| C#C[C@]1(CO)O[C@@H](n2ccc(=O)[nH]c2=O)[C@@H](F)[C@@H]1O [Compound 36, 1-((2R,3S,4R,5R)-5-ethynyl-3-fluoro-4-hydroxy-5-(hydroxymethyl)tetrahydrofuran-2-yl)pyrimidine-2,4(1H,3H)-dione] | > 1 |
| O=c1nc(NO)ccn1[C@H]1C[C@H](O)[C@](CO)(CCl)O1 [Compound 6, 1-((2R,4S,5R)-5-(chloromethyl)-4-hydroxy-5-(hydroxymethyl)tetrahydrofuran-2-yl)-4-(hydroxyamino)pyrimidin-2(1H)-one] | 0.1 to 0.25 |
| CO[C@@H]1[C@H](n2ccc(N)nc2=O)O[C@@](CO)(CCl)[C@H]1O [Compound 13, 4-amino-1-((2R,3S,4S,5R)-5-(chloromethyl)-4-hydroxy-5-(hydroxymethyl)-3-methoxytetrahydrofuran-2-yl)pyrimidin-2(1H)-one] | 0.25 to 1 |
| Nc1nc(=O)n([C@H]2C[C@H](O)[C@](CO)(CF)O2)cc1F [Compound 22, 4-amino-5-fluoro-1-((2R,4S,5R)-5-(fluoromethyl)-4-hydroxy-5-(hydroxymethyl)tetrahydrofuran-2-yl)pyrimidin-2(1H)-one] | ≤ 0.05 |
| Cc1cn([C@H]2C[C@H](O)[C@](CO)(CCl)O2)c(=O)[nH]c1=O [Compound 4, 1-((2R,4S,5R)-5-(chloromethyl)-4-hydroxy-5-(hydroxymethyl)tetrahydrofuran-2-yl)-5-methylpyrimidine-2,4(1H,3H)-dione] | > 1 |
| CC[C@]1(CO)O[C@@H](n2cnc3c(O)nc(N)nc32)C[C@@H]1O [Compound 115, 2-amino-9-((2R,4S,5R)-5-ethyl-4-hydroxy-5-(hydroxymethyl)tetrahydrofuran-2-yl)-1,9-dihydro-6H-purin-6-one] | ≤ 0.05 |

Same assay, conditions: HeLa L1 artificial-intron reporter cells, doxycycline 500 ng/mL, 72 h, numeric bounds

| SMILES | IC50 [µM] |
| --- | --- |
| Nc1nc2c(ncn2[C@@H]2O[C@@](CO)(CCl)[C@@H](O)[C@@H]2O)c(=O)[nH]1 [Compound 94, 2-amino-9-[(2R,3S,4S,5R)-5-(chloromethyl)-3,4-dihydroxy-5-(hydroxymethyl)oxolan-2-yl]-1H-purin-6-one] | > 30 |
